# From US5506204A, “Muramyl compounds for treatment of septic shock” (Peptech (UK) Limited, priority 1991, dated 1996)
# Read-outs that look alike come from different tables or passages of the source.
# What was measured:
# [1] = Pyrogenicity; settings: in vivo
# Protocol: The expression "non pyrogenic or of low pyrogenicity" refers to a compound which induces an increase in temperature of an adult human of less than half a degree following the administration of 1 to 2 mg of the compound.
# First, muramyl peptide compounds useful in the invention may be non-pyrogenic. Pyrogenicity may be simply measured by methods well known in the art.
# [2] = tested on: neutrophils
# Protocol: (§1) Neutrophils were isolated from peripheral blood. 3.5 ml of heparinised blood was spread over M-PRM medium (Flow Laboratories) and centrifuged for 40 minutes at 400g at 20° C. […] The cells were adjusted to a concentration of 2×10^6 ml.
# Adhesion: 100 μl of neutrophil suspension were placed in the wells of a flat-bottomed culture dish, and incubated at 37° C. for 60 minutes. After washing off the non-adhesive cells, the adhered neutrophils were fixed with ethanol and stained with Romanovsky-Giemsa dye. After washing out the free dye, the cell-associated dye was dissolved in isopropanol, and the optical density (OD650) of the solution was determined using an "ELISA II" microprocessor (Boehringer). The number of adherent cells was calculated by reference to a standard curve.
# (§2) In the treated group GMDP was given per os on days -2 and -1 before the operation, and subcutaneously on days +1, +2 and +3 after the operation at a dose of 1-2 mg/day. The total dose of GMDP was […]. On day +5 after the operation neutrophil function was again assessed in all patients by the same parameters as specified above.
# [3] = tested on: neutrophils; remark: listed apart in the source
# Protocol: as §1
# (§3) Chemiluminescence: Luminol-dependent chemiluminescence was measured on a 1251 Luminometer (LKB).
# (§4) For chemiluminescence, superoxide anion production, myeloperoxidase and acid phosphatase both the spontaneous and induced reactions were measured. Induction was performed by exposing the cells to opsonized zymosan (30 μl, 20 mg/ml) for 30 minutes at 37° C. before the assay.
# as §2
# [4] = tested on: neutrophils; remark: listed apart in the source
# Protocol: as §1, §3, §4
# (§5) On day before treatment with GMDP (day -1) the neutrophil function of all patients was measured by the tests described above in Example 1. In the GMDP-treated group, GMDP was administered parenterally at a dose of 1-2 mg/day for five consecutive days. The total dose of GMDP was […].
# (§6) One day after the cessation of GMDP treatment (day +6), neutrophil function was again measured in all patients.
# [5] = tested on: neutrophils; remark: listed apart in the source
# Protocol: as §1
# Myeloperoxidase: 100 μl of substrate mixture, consisting of 0.04% orthophenylene diamine (Sigma) and 0.014% hydrogen peroxide in phosphate citrate buffer (pH 5.0) was added to cells and incubated for 10 minutes before the reaction was stopped with 100 μl of 10% sulphuric acid. The optical density at 492 mu was measured with a Multiscan Titertek Plus (Flow Laboratories).
# as §4, §5, §6
# [6] = tested on: LPS-induced mortality in mice; assay: Example 3: LPS-induced mortality in mice; format: in vivo, BALB/c mice; settings: i.p. twice daily 100 μg or molar equivalent per mouse for 9 days before 300 μg LPS; mortality 2 days after LPS; FIG. 1
# Protocol: 25 female BALB/c mice weighing 16-18 g each were divided into 5 groups, each group containing 5 animals. Each group of mice received twice-daily doses of saline, GMDP, GMDP-OBu, MDP or GMDP-A. The compounds were administered by intra-peritoneal injection in twice-daily doses of 100 μg or the molar equivalent per mouse during a 9-day period before the injection of 300 μg LPS per mouse. […] Thus GMDP and GMDP-A would be useful in the treatment and prevention of sepsis and septic shock, whereas MDP and GMDP-OBu would not.
# [7] = tested on: IL-1; assay: Example 6: IL-1 production by peritoneal macrophages in response to LPS; format: in vivo, BALB/c mice; settings: 2 injections 12 hours apart; macrophages stimulated with LPS 25 μg/ml 24 hours; thymocyte co-stimulation bioassay; FIG. 4
# Protocol: Mice (BALB/c, female) 13-14 g, 5 animals in each group, received 2 injections of MDPs, 12 hours apart. The MDPs tested were MDP, muroctasin, MDP-Thr, MDP-OBu, GMDP-LL, GMDP-Lys(St) and GMDP-A. After the last injection, peritoneal cells were collected and the induction of IL-1 secretion by peritoneal macrophages was tested.
# Macrophages were collected from the peritoneal cavity of mice by lavage with Hank's balanced salt solution. After washing the cells, they were then placed in wells of flat-bottomed 96-well plates and incubated at 37° C. for 1 hour in RPMI containing 5% FCS. The plates were then washed with warm RPMI to remove non-adhering cells. LPS (25 μg/ml) was then added in fresh culture medium and the plates were further cultured for 24 hours.
# Production of IL-1 by peritoneal macrophages was assayed by thymocyte co-stimulation bioassay. Thymocytes from (CBA*C57BL.6)F1 mice (106), PHA (1 μg.ml), and the tested supernatant (50 μl) were placed into the wells of flat-bottomed 96-well plates. Thymocyte proliferation rate was measured 72 hours later by the incorporation of 3H TdR (1 μCi.well) during 6 hours prior to culture termination.
# [8] = tested on: TNFα; assay: Example 8: TNF induction by muramyl peptides; format: in vivo, BALB/c mice; settings: C. parvum-primed mice, 100 μg (equimolar) IP, LPS 25 μg 18 hours later; FIG. 6
# Protocol: Here, the muramyl peptides tested were prototype MDP, GMDP, GMDP-A, GMDP-OBu, GMDP-Lys(St), GMDPA-Lys(St), GMDP-Benz and Thr-MDP.
# BALB/mice (6 mice/groups) were injected intraperitoneally with 1.4 mg of dead C. parvum (0.2 ml of a 7 mg/ml suspension). Mice were subsequently (2 weeks later) treated with saline, MDP (100 μg) or analogue (100 μg) in 0.5 ml saline IP. The dose of each `MDP` was adjusted so that animals received equimolar amounts. […] (25 μg) was injected 18 hours after the injection of MDP/analogue and the mice were subsequently sacrificed and bled out. TNF was determined by standard capture ELISA assay.
# [9] = tested on: mice; settings: acute toxicity in mice; cited from earlier work
# [10] = opsonized zymosan, Day -1 (before treatment)
# [11] = opsonized zymosan, Day -1 to Day +6
compound,measurement,setting,value
"CC(=O)NC1C(OC2C(CO)OC(O)C(NC(C)=O)C2OC(C)C(=O)NC(C)C(=O)NC(CCC(=O)O)C(N)=O)OC(CO)C(O)C1O [GMDP, N-acetyl-D-glucosaminyl-(β1-4)-N-acetylmuramyl-L-alanyl-D-isoglutamine]",pyrogenicity,[1],sufficiently low
same,Adhesion,[2]; Day +5 after operation,47.9 ± 12.6 O.D. 650μ
same,Adhesion,[2]; Day -3 (before treatment),39.8 ± 5.4 O.D. 650μ
same,Adhesion % Change,[2]; Day -3 to Day +5,+20.4%
same,"Chemiluminescence, spontaneous",[3]; Day +5,3.37 ± 0.70 mV
same,"Chemiluminescence, spontaneous",[3]; Day -3 (before treatment),1.82 ± 0.07 mV
same,"Chemiluminescence, spontaneous % Change",[3]; Day -3 to Day +5,+85.2%
same,"Chemiluminescence, induced","[3]; opsonized zymosan, Day +5",15.8 ± 4.2 mV
same,"Chemiluminescence, induced","[3]; opsonized zymosan, Day -3 (before treatment)",11.3 ± 2.1 mV
same,"Chemiluminescence, induced % Change","[3]; opsonized zymosan, Day -3 to Day +5",+39.8%
same,"Chemiluminescent, spontaneous",[4]; Day +6,4.16 ± 0.14 mV
same,"Chemiluminescent, spontaneous",[4]; Day -1 (before treatment),2.41 ± 0.14 mV
same,"Chemiluminescent, spontaneous % Change",[4]; Day -1 to Day +6,+72.6%
same,"Chemiluminescent, induced","[4]; opsonized zymosan, Day +6",21.3 ± 3.51 mV
same,"Chemiluminescent, induced",[4]; [10],9.41 ± 2.1 mV
same,"Chemiluminescent, induced % Change",[4]; [11],+126.4%
same,"Myeloperoxidase, spontaneous",[5]; Day +6,595.2 ± 48.3 O.D. 492μ
same,"Myeloperoxidase, spontaneous",[5]; Day -1 (before treatment),504.5 ± 118 O.D. 492μ
same,"Myeloperoxidase, spontaneous % Change",[5]; Day -1 to Day +6,+17.9%
same,"Myeloperoxidase, induced","[5]; opsonized zymosan, Day +6",587.1 ± 96.3 O.D. 492μ
same,"Myeloperoxidase, induced",[5]; [10],520.3 ± 60.1 O.D. 492μ
same,"Myeloperoxidase, induced % Change",[5]; [11],+12.8%
same,effect on LPS-induced mortality,[6],antagonise the effect of LPS
same,suppression of IL-1 production,[7],suppress the IL-1 response to LPS
same,effect on LPS-induced TNFα production,[8],suppress TNFα production
same,LD50,[9],7000 mg/kg
